Assay results from paper PMC10162847 (Phytomedicine, 2023).

Test system: SARS-CoV-2 RBD^WT and mutant proteins on HEK293-hACE2-EGFP cells
Type: cell-based, human

Compound: O=c1c(O)c(-c2cc(O)c(O)c(O)c2)oc2cc(O)cc(O)c12 [myricetin, 3,5,7-trihydroxy-2-(3,4,5-tri hydroxyphenyl)-4-benzopyrone]
- binding of SARS-CoV-2 S protein to HEK293-hACE2-EGFP cell membranes: blocked
